Data as given in article PMC8791944, “GLUT3 inhibitor discovery through in silico ligand screening and in vivo validation in eukaryotic expression systems” (Scientific Reports, 2022).

What follows are molecules tested against T1, GLUT3 (Homo sapiens, UniProt P11169) (assay: Glucose transport assay, wild-type GLUT3 expressed in hxt^0 yeast cells EBY.S7 (C^14-glucose uptake)). Details: wild-type GLUT3 in hxt^0 yeast cells, 3 mM glucose, uptake 10 min; read-out: IC50 for GLUT3 transport inhibition.
T1 construct: expressed in transfected cells; host or cells: Saccharomyces cerevisiae hxt0 strain EBY.S7 (fgy1)
T1 sequence (P11169 1-496): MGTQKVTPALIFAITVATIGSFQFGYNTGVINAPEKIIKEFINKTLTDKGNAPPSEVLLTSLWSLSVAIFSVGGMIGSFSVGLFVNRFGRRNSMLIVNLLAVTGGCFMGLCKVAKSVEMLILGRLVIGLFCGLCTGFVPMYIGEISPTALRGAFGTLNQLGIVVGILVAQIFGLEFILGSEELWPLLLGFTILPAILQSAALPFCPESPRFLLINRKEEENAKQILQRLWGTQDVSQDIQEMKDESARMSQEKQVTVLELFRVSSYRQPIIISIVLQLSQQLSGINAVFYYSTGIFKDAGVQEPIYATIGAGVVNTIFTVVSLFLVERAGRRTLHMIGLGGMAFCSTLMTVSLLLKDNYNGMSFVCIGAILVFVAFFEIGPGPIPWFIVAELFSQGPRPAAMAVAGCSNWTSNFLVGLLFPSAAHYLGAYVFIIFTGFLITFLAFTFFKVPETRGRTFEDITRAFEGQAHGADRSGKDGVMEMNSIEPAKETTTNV
Type: cell-based
Source text: To experimentally validate the ligand candidates determined by the virtual ligand screening, we tested their effect on GLUT3 transport activity. For this, we used the recently established assay system[67] in which GLUT3 is expressed in a yeast strain devoid of endogenous hexose transporters (hxt^0) so that glucose uptake into cells relies solely on the activity of GLUT3.
We determined GLUT3 transport activity by measuring the accumulation of radioactive glucose inside whole hxt^0 yeast cells (see “Materials and methods” for details). To select an appropriate substrate concentration for transport inhibition screening, we assessed the KM of glucose for GLUT3 in hxt^0 cells. […] Indeed, functional expression of human GLUTs in hxt^0 cells often requires mutations in genes related to yeast lipid composition[65],[73] as well as single-site mutations that may favor the outward-facing conformation of the transporters[65]–[67].
Hexose transporter deficient yeast strains (hxt^0) EBY.VW4000 for expression of GLUT5, EBY.S7 (carrying the fgy1 mutation) for expression of GLUT1-3, and SDY.022 (EBY.S7 Δerg4) for expression of GLUT4 cells, and corresponding plasmids[65],[66],[73] were from the labs of Drs. Eckhard Boles and Mislav Oreb (Goethe University, Germany). Media ingredients and buffer components were from VWR or Millipore Sigma. Commercial providers for chemicals tested for GLUT3 inhibition are listed in Supplementary Table S1. C^14-glucose was from Moravek Inc (Brea, CA, USA). Cancer cell lines were from ATCC (https://www.atcc.org).
The plasmids containing functional constructs of GLUT1-5 were transformed in the corresponding hxt^0 strains[65],[66],[73] (EBY.VW4000 for GLUT5S72Y, EBY.S7 for GLUT1, GLUT2∆loopS_Q455R, GLUT3 and GLUT3S66Y, and SDY.022 for GLUT4) and grown on 2% (w/v) agar plates of the respective media supplemented with 1% (w/v) maltose. An initial culture of ~ 10 ml was started with a few colonies and grown for 2–3 days if the media was SC-uracil with 1% (w/v) maltose (GLUT1, GLUT3, GLUT4) or 1–2 days if the media was YEP with 1% (w/v) maltose and 100 µg/ml geneticin G418 (GLUT2∆loopS_Q455R and GLUT5S72Y). Cells were washed once in the corresponding media in which maltose was substituted with 0.1–2% hexose substrate for the expressing GLUT (i.e., SC-uracil, 2% (w/v) glucose for GLUT1; SC-uracil, 0.2% (w/v/) glucose for GLUT3 and GLUT4; YEP, 0.2% (w/v) glucose, 100 µg/ml geneticin G418 for GLUT2∆loopS_Q455R, and YEP, 2% (w/v) fructose for GLUT5 S72Y). Then, cells were transferred in the same media so that OD600nm ~ 0.5 and grown further for 1–2 days.
For transport activity assay, cells in the hexose media were centrifuged (1000×g, 5 min, room temperature), washed once with PBS buffer (10 mM Na2HPO4, 1.8 mM KH2PO4, 2.7 mM KCl, 137 mM NaCl, pH 7.4), and resuspended in PBS buffer at an OD600nm ~ 10; each assay contained 100 µl of this cell solution. Transport activity assay was started by adding C^14-hexose at a substrate concentration corresponding to the respective KM (5 mM glucose for GLUT1 or GLUT4, 3 mM glucose for GLUT3 or 1.5 mM glucose for GLUT3S66Y, 15 mM glucose for GLUT2∆loopS_Q455R, and 10 mM fructose for GLUT5S72Y); for determining the glucose KM in GLUT3 and GLUT3S66Y, substrate concentrations were varied accordingly. […] The filtration membranes were transferred into scintillation vials with 10 ml of Scintillation Solution (BioSafeII; Research Products International, Mount Prospect, IL, USA), and vortexed briefly. The radioactivity was determined with a scintillation counter (Tri-carb 2900TR, Perkin Elmer, USA).

Compound	IC50
CC(=O)Nc1ccc(S(=O)(=O)Nc2ccc(Nc3cc(N(C)C)nc(C)n3)cc2)cc1 [G3iA, N-(4-{[(4-{[6-(dimethylamino)-2-methylpyrimidin-4-yl]amino}phenyl)amino]sulfonyl}phenyl)acetamide]	7.01 ± 1.02 µM
COc1ccccc1-n1c(/C=C/c2ccc(O)cc2)nc2ccc(Br)cc2c1=O [G3iB, 6-bromo-2-[(E)-2-(4-hydroxyphenyl)ethenyl]-3-(2-methoxyphenyl)quinazolin-4(3H)-one]	12.2 ± 4 µM
Cc1cccnc1OC1CCN(c2cc(N3CCCC3CO)ncn2)CC1 (stereo not drawn) [G3iC]	12.5 ± 4.4 µM
Cc1cc(NC(=O)CCC2Cc3ccccc3NC2=O)nc(-c2ccccc2)n1 (stereo not drawn) [G3iD]	19.3 ± 4.7 µM
O=C(Nc1cccc(Cl)c1)c1cccc(NC(=O)c2cccc([N+](=O)[O-])c2)c1 [G3iE, N-{3-[(3-chloroanilino)carbonyl]phenyl}-3-nitrobenzamide]	23.6 ± 1.9 µM
Cc1ccccc1CN(Cc1nnc(C(C)(C)C)o1)c1ccc2nc(O)[nH]c2c1 [G3iF]	38.4 ± 11.8 µM
